Data taken from ChEMBL document CHEMBL6092216, “Development of α-Helical Antimicrobial Peptides with Imperfect Amphipathicity for Superior Activity and Selectivity” (J Med Chem, 2024).
Calls of active or inactive are those of the source. The rule behind the calls is not given here.

What was measured:
Acinetobacter baumannii [1] = test: Antibacterial activity against Acinetobacter baumannii ATCC 19606 assessed as inhibition of bacterial growth by tube microdilution assay; type: functional
Staphylococcus aureus [2] = test: Antibacterial activity against Staphylococcus aureus ATCC 6538 assessed as inhibition of bacterial growth by tube microdilution assay; type: functional
HEK-293T = test: Cytotoxicity against HEK293T cells assessed as effect on cell viability at 3.13 to 400 ug/ml incubated for 24 hrs by CCK-8 assay; type: toxicity, cell-based; conditions: human, dose 3.13-400 µg/ml
Escherichia coli [3] = test: Antibacterial activity against Escherichia coli 0894 assessed as inhibition of bacterial growth incubated for 24 hrs by tube microdilution assay; type: functional
Escherichia coli [4] = test: Antibacterial activity against Escherichia coli 1007 assessed as inhibition of bacterial growth incubated for 24 hrs by tube microdilution assay; type: functional
Staphylococcus aureus [5] = test: Antibacterial activity against Staphylococcus aureus 08310 assessed as inhibition of bacterial growth incubated for 24 hrs by tube microdilution assay; type: functional
Staphylococcus aureus [6] = test: Antibacterial activity against Staphylococcus aureus 11842 assessed as inhibition of bacterial growth incubated for 24 hrs by tube microdilution assay; type: functional
Staphylococcus aureus [7] = test: Antibacterial activity against methicillin-resistant Staphylococcus aureus Z assessed as inhibition of bacterial growth incubated for 24 hrs by tube microdilution assay; type: functional
Staphylococcus aureus [8] = test: Antibacterial activity against methicillin-resistant Staphylococcus aureus 11 assessed as inhibition of bacterial growth incubated for 24 hrs by tube microdilution assay; type: functional
Staphylococcus aureus [9] = test: Antibacterial activity against methicillin-resistant Staphylococcus aureus 12 assessed as inhibition of bacterial growth incubated for 24 hrs by tube microdilution assay; type: functional
Staphylococcus aureus [10] = test: Antibacterial activity against methicillin-resistant Staphylococcus aureus 41 assessed as inhibition of bacterial growth incubated for 24 hrs by tube microdilution assay; type: functional
Pseudomonas aeruginosa [11] = test: Antibiofilm activity against Pseudomonas aeruginosa ATCC 27853 assessed as inhibition of biofilm formation at 1X to 10XMIC incubated for 24 hrs by crystal violet staining based analysis; type: functional, organism-based
Staphylococcus aureus [12] = test: Antibiofilm activity against preformed Staphylococcus aureus ATCC 6538 biofilms assessed as biofilm eradication at 1X to 10XMIC incubated for 24 hrs by crystal violet staining based analysis; type: functional, organism-based
Acinetobacter baumannii [13] = test: Antipersister-activity against Acinetobacter baumannii ATCC 19606 assessed as elimination of persister cells preincubated adherent persistent cells with colistin for 24 hrs followed by incubation with drug for 12 hrs; type: functional, organism-based
Staphylococcus aureus [14] = test: Induction of bacterial cell rupture in Staphylococcus aureus ATCC 6538 assessed as membrane rupture, roughening and blebbing of membrane at 5XMIC measured after 30 mins by transmission electron microscopy; type: functional, organism-based
Pseudomonas aeruginosa [15] = test: Bactericidal activity against Pseudomonas aeruginosa ATCC 27853 assessed as elimination of bacterial cells at 5XMIC measured within 1 hr by killing kinetic assay; type: functional
Staphylococcus aureus [16] = test: Bactericidal activity against Staphylococcus aureus ATCC 6538 assessed as elimination of bacterial cells at 5XMIC measured within 1 hr by killing kinetic assay; type: functional
Staphylococcus aureus [17] = test: Bactericidal activity against Staphylococcus aureus ATCC 6538 assessed as elimination of bacterial cells at 5X to 10X MIC measured within 3 hrs by killing kinetic assay; type: functional
Pseudomonas aeruginosa [18] = test: Ratio of MIC for antibacterial activity against Pseudomonas aeruginosa ATCC 27853 measured following incubation of drug with mouse plasma for 8 hrs to MIC for antibacterial activity against Pseudomonas aeruginosa ATCC 27853; type: functional
[19] = Toxicity against C57BL/6J mouse assessed as behavioural changes at 10 to 20 mg/kg, iv measured for 48 hrs post-injection; type: organism-based; conditions: in vivo, dose 10-20 mg/kg

For H-RRGIKKFIKKVKKVKKAI-OH, the MIC (Acinetobacter baumannii [1]) was 2.34 mg/L, the MIC (Staphylococcus aureus [2]) was 2.34 mg/L and the Activity (HEK-293T) was “Non-toxic”. It also gave an MIC (Escherichia coli [3]) of 9.37 mg/L, an MIC (Escherichia coli [4]) of 9.37 mg/L and an MIC (Staphylococcus aureus [5]) of 2.34 mg/L. It also gave an MIC (Staphylococcus aureus [6]) of 2.34 mg/L, an MIC (Staphylococcus aureus [7]) of 2.34 mg/L and an MIC (Staphylococcus aureus [8]) of 2.34 mg/L. For the same substance, the MIC (Staphylococcus aureus [9]) was 2.34 mg/L, the MIC (Staphylococcus aureus [10]) was 2.34 mg/L and the Activity (Pseudomonas aeruginosa [11]) was “Dose-dependent-effect”. The Activity (Staphylococcus aureus [12]) was “Active”, the Activity (Acinetobacter baumannii [13]) was “Dose-dependent-effect” and the Activity (Staphylococcus aureus [14]) was “Active; Roughening And Blebbing Of Membrane Is Less Pronounced Than In Pseudomonas Aeruginosa”. For the same substance, the Activity (Pseudomonas aeruginosa [15]) was 96.6%, the Activity (Staphylococcus aureus [16]) was 99.7% and the Activity (Staphylococcus aureus [17]) was 100%. For the same substance, the Ratio (Pseudomonas aeruginosa [18]) was 4 and the Activity [19] was “Non-toxic”.
